Data published in PMC10610311, “Eugenol: In Vitro and In Ovo Assessment to Explore Cytotoxic Effects on Osteosarcoma and Oropharyngeal Cancer Cells” (Plants, 2023).

Experiments:
keratinocytes (HaCaT) = conditions: cited from earlier work
Detroit-562 cells [1] = assay: Cellular morphology evaluation (bright field), Detroit-562; assay type: cell-based, human; conditions: Detroit-562, Eug 0.1 mM, 72 h, vs control
Experimental: (§1) As a means of determining the impact of Eug on the morphology of cells, the microscopic evaluation of SAOS-2 and Detroit-562 cells was carried out after exposure for 72 h. The changes were observed under bright field illumination with the help of the Olympus IX73 inverted microscope (Olympus, Tokyo, Japan), and the processing of the images for the purpose of analysis was carried out by means of CellSens Dimensions v.17 Software (Olympus, Tokyo, Japan).

[2] = tested on: Detroit-562 (oropharynx squamous carcinoma cells); assay: MTT cell viability assay, Detroit-562; assay type: cell-based; conditions: Homo sapiens, 72 h, read-out: cell viability (normalized to control)
Experimental: (§2) The present study was performed on two human cancer cell lines—SAOS-2 (osteosarcoma cells) and Detroit-562 (oropharynx squamous carcinoma cells), respectively, which were received from ATCC in the form of frozen vials. SAOS-2 cells were cultured in DMEM, while Detroit-562 cells were cultured using EMEM. Both media contained 10% FCS and 1% penicillin (100 U/mL)–streptomycin (100 μg/mL) mixture. Over the course of the experiments, the cells were incubated at 37 °C and 5% CO2.
(§3) A colorimetric approach—the MTT [[…])-2,5-diphenyltetrazolium bromide] assay, was used to determine cell viability. This was accomplished by cultivating the cells in 96-well plates at a density of 1x10^4 cells per well. Upon achieving a confluence of approximately 90%, the cells were stimulated for 72 h with five concentrations of Eug (0.1; 0.25; 0.5; 0.75 and 1 mM). The Eug solutions were prepared by diluting stock solution in culture medium. After this time interval, 10 μL of MTT reagent was added to each well, and the cells were incubated for three hours at 37 °C. To solubilize the MTT formazan crystals, 100 μL of solubilizer were added to each well, and after 30 min, the absorbance was measured at 570 nm using Cytation 5 (BioTek Instruments Inc., Winooski, VT, USA).

[3] = tested on: tongue squamous carcinoma cells (SCC4); design: method as in PMID 36675971; conditions: SCC4, Eug between 0.1 and 1 mM; cited from earlier work
[4] = tested on: gingival fibroblasts (HGF); design: method as in PMID 36675971, doi:10.31925/farmacia.2023.2.8; conditions: same concentration and time interval as current study; cited from earlier work
[5] = tested on: caspases 3/7, 8, and 9 in SAOS-2 cells; assay: Caspase-Glo caspase-3/7, -8, -9 activity, SAOS-2; assay type: cell-based, human; conditions: SAOS-2, Eug 0.5 mM, 72 h
Experimental: (§4) The activity of caspases 3/7, 8, and 9 was determined after the SAOS-2 and Detroit-562 cells’ 72 h treatment with Eug 0.5 mM, using the Caspase-Glo Kit provided by Promega, Madison, WI, USA. The plates were first equilibrated at room temperature for 30 min, then, the Caspase-Glo reagent (100 μL/well) was added. The plates were shaken for 30 s on a plate shaker and maintained at room temperature for another 2 h. Finally, the luminescence was measured on Cytation 5 (BioTek Instruments Inc., Winooski, VT, USA).

[6] = tested on: caspases 3/7, 8, and 9 in Detroit-562 cells; assay: Caspase-Glo caspase-3/7, -8, -9 activity, Detroit-562; assay type: cell-based, human; conditions: Detroit-562, Eug 0.5 mM, 72 h
Experimental: as §4

SAOS-2 cells [7] = assay: RealTime-Glo Annexin V Apoptosis and Necrosis Assay, SAOS-2; assay type: cell-based, human; conditions: SAOS-2, Eug 0.5 mM, 0-72 h
Experimental: (§5) To confirm the apoptotic effect of Eug 0.5 mM in Saos-2 and Detroit-562 cells, the RealTime-Glo™ Annexin V Apoptosis and Necrosis Assay was performed according to the manufacturer’s protocol. In brief, the cells were cultured in solid white bottom 96-well plates (Costar® 3917) and treated with Eug. The prepared 2X Detection Reagent that contained Annexin V NanoBiT™ Substrate, Annexin V-SmBiT, Annexin V-LgBiT, CaCl2, and Necrosis Detection Reagent was added in each well and the plates were shaken for 30 s at 500 rpm. The luminescence and fluorescence (excitation 485 ± 20 nm, and emission 525 ± 30 nm) were recorded at different time points (0, 6, 12, 24, 48, and 72 h post-treatment) using Cytation 5. Background signals (from no-cell wells) that were subtracted from the wells that contained cells.

[8] = tested on: SAOS-2 (human osteosarcoma cells); assay: MTT cell viability assay, SAOS-2; assay type: cell-based; conditions: 72 h, read-out: cell viability (normalized to control)
Experimental: as §2, §3

[9] = tested on: chorioallantoic membrane of hen's eggs; assay: Hen's Egg Test - Chorioallantoic Membrane (HET-CAM); assay type: in vivo, Gallus gallus domesticus; design: key to IS (irritation score): IS = 5×(301−H)/300 + 7×(301−L)/300 + 9×(301−C)/300; tH, time at which hemorrhage was established / tL, time at which vascular lysis was established / tC, time at which intravascular coagulation was established: unit not given here; conditions: Eug 1 mM / SDS 1%, monitored 5 min; for IS (irritation score): 600 µL on CAM
Experimental: The irritant and toxic potential of Eug (1 mM) at the vascular level was assessed by performing the HET-CAM assay, as previously described. In brief, several steps were followed: […] (ii) on day 4 after incubation, a perforation was made in each egg to extract 6 to 7 mL of albumen; (iii) on the next day of incubation, a window was cut in the upper part of the eggs to facilitate the visualization of the blood vessels, and was covered using adhesive tape; (iv) on day 10 of incubation, 600 µL of each sample (negative control—H2O, positive control—SDS 1%, and Eug 1 mM) were added to the chorioallantoic membrane; (v) the compounds’ ability to produce hemorrhage (H), vascular lysis (L), and coagulation was monitored for 5 min, taking photos (using the Discovery 8 Stereomicroscope from Zeiss, Göttingen, Germany and the Zeiss Axio CAM 105 color camera) prior to the addition of the samples (T0) and at the end of the 5 min period (T5); and (vi) the irritation score (IS) was finally determined for each sample, according to the following formula: IS=5×301−H/300+7×301−L/300+9×301−C/300, where IS = irritation score, H—the time at which the hemorrhage was observed, L—the time at which vascular lysis occurred and C—the time at which intravascular coagulation was established.

SAOS-2 cells [10] = assay: DAPI nuclear morphology / apoptotic index, SAOS-2; assay type: cell-based, human; conditions: 72 h
Experimental: (§6) Using immunofluorescence, it was possible to provide further details regarding Eug’s effects on osteosarcoma and oropharynx squamous carcinoma nuclei. The technique was performed for cells stimulated with Eug 0.5 and 1 mM for 72 h. The applied protocol assumed the following stages: (i) culturing the cells in 12-well plates and stimulating them after reaching the desired confluence with Eug 0.5 and 1 mM for 72 h; (ii) washing with PBS and fixing the cells with 4% paraformaldehyde; (iii) permeabilization with Triton X 0.2%; (iv) blocking the permeabilization with a FCS solution in Triton X 0.01%; and (v) adding DAPI for 15 min. The pictures were then taken with Cytation 1 and processed using Gen5™ Micro-plate Data Collection and Analysis Software v. 3.12 (BioTek® Instruments Inc., Winooski, VT, USA). For a quantitative analysis of the Eug impact at the cellular level, the cell apoptosis index (AI) was calculated using the previously described formula [76]: AI=Number of apoptotic cells/Total number of cells×100
(§7) In accordance with the published protocols, the nuclear morphology was evaluated using ImageJ software v.6 [77].

SAOS-2 cells [11] = assay: Cellular morphology evaluation (bright field), SAOS-2; assay type: cell-based, human; conditions: SAOS-2, concentrations higher than 0.1 mM, 72 h
Experimental: as §1

[12] = tested on: colorectal carcinoma cells (HCT-116); design: method as in doi:10.31925/farmacia.2023.2.8; conditions: HCT-116, Eug between 0.1 and 1 mM; cited from earlier work
[13] = tested on: Bax, Bad, Bcl-2 mRNA in SAOS-2 cells; assay: RT-PCR expression of apoptosis-related genes, SAOS-2; assay type: cell-based, human; conditions: SAOS-2, Eug 0.5 mM, 72 h, normalized to 18S
Experimental: (§8) To investigate the potential cell-death mechanism induced by Eug 0.5 mM in SAOS-2 and Detroit-562 cells, the expression of pro-apoptotic (Bax, Bad) and anti-apoptotic (Bcl-2) markers was evaluated using the real-time reverse transcription–polymerase chain reaction (RT-PCR) technique after 72 h of treatment. RNA extraction was performed using the Quick-RNA Miniprep Kit (Zymo Research, Irvine, CA, USA), and the amount of extracted RNA was measured with the DS-11 spectrophotometer (DeNovix, Wilmington, DE, USA). The cDNA was produced using the Maxima® First Strand cDNA Synthesis Kit, and the RT-qPCR quantification was performed using a Quant Studio 5 real-time PCR system (Thermo Fisher Scientific, Inc., Waltham, MA, USA) and Power SYBR-Green PCR Master Mix (Thermo Fisher Scientific, Inc., Waltham, MA, USA).

Detroit-562 cells [14] = assay: RealTime-Glo Annexin V Apoptosis and Necrosis Assay, Detroit-562; assay type: cell-based, human; conditions: Detroit-562, Eug 0.5 mM, 0-72 h
Experimental: as §5

Detroit-562 cells [15] = assay: DAPI nuclear morphology / apoptotic index, Detroit-562; assay type: cell-based, human; conditions: 72 h
Experimental: as §6, §7

[16] = tested on: Bax, Bad, Bcl-2 mRNA in Detroit-562 cells; assay: RT-PCR expression of apoptosis-related genes, Detroit-562; assay type: cell-based, human; conditions: Detroit-562, Eug 0.5 mM, 72 h, normalized to 18S
Experimental: as §8

SAOS-2 cells [17] = tested on: SAOS-2 cells; design: method as in PMID 26929741; conditions: SAOS-2, 100 μM; cited from earlier work
[18] = SAOS-2, Eug 0.5 and 1 mM, vs control
[19] = Detroit-562, Eug 0.5 and 1 mM, vs control

For `C=CCc1ccc(O)c(OC)c1` [Eug, 4-alil-2-metoxifenol], the “decrease in cell viability” value (keratinocytes (HaCaT); HaCaT, same concentration and time interval as current study) is listed as at most 70%, the “changes in aspect or confluence of cells” value (Detroit-562 cells [1]) is listed as “no significant changes” and the viability at 100 µM ([2]; Detroit-562, Eug 0.1 mM) is listed as 89%. For the same molecule, the viability at 1000 µM ([2]; Detroit-562, Eug 1 mM) was 37%, the “cell viability (in words)” value [3] was “dose-dependent decrease” and the “decrease in cell viability” value [4] was at most 70%. The “activation of caspase 3/7” value [5] was “significant increase”, the “activation of caspase 8” value [5] was “significant increase” and the “activation of caspase 9” value [5] was “significant increase”. The “activation of caspase 3/7” value [6] was “significant increase”, the “activation of caspase 8” value [6] was “significant increase” and the “activation of caspase 9” value [6] was “significant increase”. The “luminescence signal (phosphatidylserine externalization), preceding the fluorescence increase” value (SAOS-2 cells [7]) was “time-dependent increase”, the viability at 100 µM ([8]; SAOS-2, Eug 0.1 mM) was 92% and the viability at 1000 µM ([8]; SAOS-2, Eug 1 mM) was 41%. For the same molecule, the “IS (irritation score)” value [9] was 1.69, the “tC, time at which intravascular coagulation was established” value [9] was 263 and the “tH, time at which hemorrhage was established” value [9] was 300. The “tL, time at which vascular lysis was established” value [9] was 278, the “apoptotic index (AI)” value (SAOS-2 cells [10]; SAOS-2, Eug 0.5 mM, DAPI) was 25% and the nucleus area (SAOS-2 cells [10]; [18]) was “decreased significantly”. The nucleus circumference (SAOS-2 cells [10]; [18]) was “decreased significantly”, the “impact on cellular shape and confluence” value (SAOS-2 cells [11]) was “significant impact” and the “decrease in cell viability” value [12] was “up to 34%”. For the same molecule, the “expression of anti-apoptotic marker Bcl-2 (mRNA)” value [13] was “decreasing”, the “expression of pro-apoptotic marker Bad (mRNA)” value [13] was “significantly increasing” and the “expression of pro-apoptotic marker Bax (mRNA)” value [13] was “significantly increasing”. The “luminescence signal (phosphatidylserine externalization), preceding the fluorescence increase” value (Detroit-562 cells [14]) was “time-dependent increase”, the “apoptotic index (AI)” value (Detroit-562 cells [15]; Detroit-562, Eug 0.5 mM, DAPI) was 30% and the nucleus area (Detroit-562 cells [15]; [19]) was “decreased significantly”. For the same molecule, the nucleus circumference (Detroit-562 cells [15]; [19]) was “decreased significantly”, the “expression of anti-apoptotic marker Bcl-2 (mRNA)” value [16] was “decreasing” and the “expression of pro-apoptotic marker Bad (mRNA)” value [16] was “significantly increasing”. For the same molecule, the “expression of pro-apoptotic marker Bax (mRNA)” value [16] was “significantly increasing”.

In the case of `CCCCCCCCCCCCOS(=O)(=O)[O-].[Na+]` [SDS, sodium dodecyl sulfate, reference compound], the “IS (irritation score)” value [9] is reported as 19.87, the “tC, time at which intravascular coagulation was established” value [9] is reported as 15 and the “tH, time at which hemorrhage was established” value [9] is reported as 21. The “tL, time at which vascular lysis was established” value [9] was 17.

In the case of `CN(Cc1cnc2nc(N)nc(N)c2n1)c1ccc(C(=O)N[C@@H](CCC(=O)O)C(=O)O)cc1` [methotrexate, reference compound], the “cell viability (in words)” value (keratinocytes (HaCaT); non-tumor cells HaCaT, methotrexate more pronounced) is given as “reduced cell viability in a dose-dependent manner” and the cell viability (SAOS-2 cells [17]) is given as “below 20%”.
